The test system of data set [1] is HEK293 WT and HEK293-ABCG2 cells. Nature of the data set: Intrinsic cytotoxicity of compounds, MTT assay. Format: cell-based, human. The settings on record: HEK293-ABCG2 vs HEK293 WT, 72 h, 0.1–100 µM. Here is the method: (§1) Cell viability was evaluated with a 3-(4,5-dimethylthiazol-2-yl)-2,5-diphenyltetrazolium bromide (MTT) colorimetric assay. HEK293 WT and HEK293-ABCG2 cells were seeded into 96-well culture plates at a 1.5 × 10^4 cells/well density. After overnight incubation, the cells were treated with various concentrations of compounds (0–100 µM) for 72 h at 37 °C under 5% CO2. […] Sensitization experiments were also carried out on H460 and H460MX20 cells. For these experiments, H460 and H460MX20 cells were seeded into 96-well culture plates at 1.0 × 10^4 cells/well density. […] After the treatment, the culture medium was removed and 100 μL of a 0.5 mg.mL^−1 MTT solution was added. Cells were then incubated for 4 h at 37 °C under 5% CO2. The formazan crystals were dissolved with a solution of DMSO/ethanol (1:1) and the absorbance was measured at 570 nm using a Multiscan FC microplate reader (Thermo Scientific). The results were expressed as percentage of viable cells versus control cells (0.1% DMSO, v/v) taken as 100%.
(In general: Tetrazolium assays rely on reduction of a dye to a coloured formazan, in cell work by metabolically active cells.)

The test system of the next data set is HEK293-ABCG2 cells. In words: Sensitization of ABCG2-transfected cells to SN-38, MTT assay. Type of data set: cell-based, human. The settings on record: for Chemosensitization to SN-38: HEK293-ABCG2, 72 h co-treatment, IC50 value or 5 µM; for FR, fold reversal: vs HEK293 WT. Here is the method: as §1
The test system of a further data set is H460MX20 cells. In words: Sensitization of lung cancer cells overexpressing ABCG2 to SN-38, MTT assay. Format: cell-based, human. The settings on record: H460MX20, SN-38 10 nM, 72 h, IC50 value or 5 µM. The procedure: as §1
The next data set has as its target T1, ABCC1 (MRP1) (Homo sapiens, UniProt P33527).
T1 construct: expressed in transfected cells; host or cells: BHK21
In words: ABCC1 (MRP1) calcein-AM transport inhibition in BHK21-ABCC1 cells. Format: cell-based. The note with it: 1 and 10 µM; for Inhibition of MRP1-mediated transport: calcein-AM. The procedure:
ABCG2 inhibition assays were carried out on HEK293 WT and HEK293-ABCG2 cells. Cells were seeded at the density of 1 × 10^5 cells/well in 24 well culture plates and incubated for 48 h at 37 °C under 5% CO2. Cells were treated with compounds and 10 μM of mitoxantrone for 30 min at 37 °C and 5% CO2. After incubation the cells were washed with PBS, trypsinized and resuspended in ice cold PBS. The intracellular drug fluorescence was monitored with a FACS Calibur cytometer (Becton Dickinson) using the FL4 channel, with at least 10,000 events collected. The maximal fluorescence (taken as 100%) was determined with the difference between the mean fluorescence of HEK-ABCG2 cells incubated with 0.5 μM Ko143 (ABCG2 reference inhibitor) or by using the HEK293 WT cell line as a control and cells without inhibitor (mitoxantrone alone). The percent of inhibition was determined as previously described. For bimodulation assays the cells were concomitantly treated with 10 μM of one or two combined inhibitors under similar conditions as described previously. For washing assays, cells were treated with 10 μM concentrations of compounds for 30 min. Then, the medium with the inhibitor was removed and the cells were washed with PBS and incubated only with culture medium for different periods of time (0.5 and 3 h). After incubation, cells were exposed to 5 µM mitoxantrone for 30 min, and then analyzed by flow cytometry. The percentage of transport inhibition was calculated by the following equation: %Inhibition=C-S/I-S×100 where “C” corresponds to the intracellular fluorescence of cells in the presence of the tested compounds and substrate (mitoxantrone to ABCG2, Rhodamine 123 to ABCB1 and calcein to ABCC1), “S” corresponds to the intracellular fluorescence of cells in the presence of substrate alone, and “I” corresponds to the intracellular fluorescence of cells in the presence of the substrate and reference inhibitor (Ko143 to ABCG2, GF120918 to ABCB1 and verapamil to ABCC1).
ABCB1 (P-gp) and ABCC1 (MRP1) inhibition assays were carried out on NIH3T3 WT and NIH3T3-ABCB1 or BHK21 WT and BHK21-ABCC1 cell lines. Cells were treated with 5 μM rhodamine 123 or 0.2 μM calcein-AM as substrates, and with or without GF120918 (0.5 μM) or verapamil (30 μM) as reference inhibitors, for ABCB1 and ABCC1, respectively. Compounds were assayed at 1 and 10 µM. The same procedure and calculation to determine the percentage of inhibition were used for ABCG2 inhibition assays. The intracellular fluorescence was monitored with a FACS Calibur cytometer (Becton Dickinson) using the FL1 channel.

[2] abbreviates: HEK293-ABCG2, SN-38 + inhibitor at 5 µM.
The mark [3] stands for this setting: HEK293-ABCG2, SN-38 + inhibitor at its IC50 value.

Data on four molecules can be found in article PMC7815716, “Mechanistic basis of breast cancer resistance protein inhibition by new indeno[1,2-b]indoles” (Scientific Reports, 2021).

Structures are written as SMILES. “Also recorded” adds a separate entry of the source.

T1 sequence (P33527 whole entry): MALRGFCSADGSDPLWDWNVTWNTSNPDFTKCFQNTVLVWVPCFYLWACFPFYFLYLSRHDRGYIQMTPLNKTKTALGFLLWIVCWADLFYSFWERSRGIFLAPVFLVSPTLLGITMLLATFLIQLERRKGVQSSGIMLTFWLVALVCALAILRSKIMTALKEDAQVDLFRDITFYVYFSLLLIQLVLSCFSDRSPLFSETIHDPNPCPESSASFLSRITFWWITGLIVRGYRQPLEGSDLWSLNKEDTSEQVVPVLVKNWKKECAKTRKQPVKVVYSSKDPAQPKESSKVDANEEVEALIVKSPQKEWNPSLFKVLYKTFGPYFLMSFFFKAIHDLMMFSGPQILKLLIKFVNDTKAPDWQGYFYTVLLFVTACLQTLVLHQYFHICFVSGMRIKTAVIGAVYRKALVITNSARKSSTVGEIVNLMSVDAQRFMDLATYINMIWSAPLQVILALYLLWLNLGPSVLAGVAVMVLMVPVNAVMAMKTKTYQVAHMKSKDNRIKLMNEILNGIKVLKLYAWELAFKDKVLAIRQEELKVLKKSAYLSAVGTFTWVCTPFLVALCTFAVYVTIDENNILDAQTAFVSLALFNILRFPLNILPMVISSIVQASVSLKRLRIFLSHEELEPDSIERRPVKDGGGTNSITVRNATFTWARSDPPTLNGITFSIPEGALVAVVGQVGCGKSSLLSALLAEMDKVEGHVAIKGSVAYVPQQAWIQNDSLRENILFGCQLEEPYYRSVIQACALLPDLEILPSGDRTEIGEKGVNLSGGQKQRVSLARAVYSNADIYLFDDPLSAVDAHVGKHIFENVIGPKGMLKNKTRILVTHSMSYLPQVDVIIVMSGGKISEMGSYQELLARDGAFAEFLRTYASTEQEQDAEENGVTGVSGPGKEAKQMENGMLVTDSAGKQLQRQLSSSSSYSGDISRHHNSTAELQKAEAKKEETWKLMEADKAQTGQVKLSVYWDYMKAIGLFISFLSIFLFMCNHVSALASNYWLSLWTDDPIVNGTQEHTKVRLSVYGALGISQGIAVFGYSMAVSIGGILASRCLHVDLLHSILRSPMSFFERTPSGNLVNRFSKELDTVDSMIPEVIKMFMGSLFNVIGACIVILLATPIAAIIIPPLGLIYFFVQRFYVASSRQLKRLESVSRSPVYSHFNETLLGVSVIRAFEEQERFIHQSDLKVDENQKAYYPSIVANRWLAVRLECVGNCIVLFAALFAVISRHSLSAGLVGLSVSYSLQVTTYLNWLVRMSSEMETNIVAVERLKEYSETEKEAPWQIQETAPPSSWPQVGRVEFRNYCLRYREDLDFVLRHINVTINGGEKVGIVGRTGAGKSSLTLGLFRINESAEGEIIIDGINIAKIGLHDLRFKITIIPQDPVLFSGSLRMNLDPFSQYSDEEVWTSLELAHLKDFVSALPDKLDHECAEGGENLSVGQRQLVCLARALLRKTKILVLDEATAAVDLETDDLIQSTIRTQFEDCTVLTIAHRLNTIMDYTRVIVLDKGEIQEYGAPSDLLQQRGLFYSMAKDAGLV

What is called melting point is the temperature, or range, at which the solid turns liquid. The molecule `COc1cc2c(cc1OC)-c1c(c3c(n1CCc1ccccc1)CC(C)CC3=O)C2=O` (centres unmarked) [5e, 2,3-Dimethoxy-7-methyl-5-phenethyl-5,6,7,8-tetrahydroindeno[1,2-b]indole-9,10-dione] showed a melting point of 235 °C. Further, the “Intrinsic cytotoxicity in ABCG2-transfected versus control cells (cross-resistance)” value in data set [1] is recorded as “no apparent cross-resistance”. Further, the “Chemosensitization to SN-38” value in the data set with HEK293-ABCG2 cells is “efficiently chemosensitize”. Moreover, in the data set on HEK293-ABCG2 cells (setting [2]), the “FR, fold reversal” value was 3.08. For the same molecule, the “FR, fold reversal” value in the data set with HEK293-ABCG2 cells (setting [3]) is on record as 9.51. For the same molecule, the “Chemosensitization to SN-38” value with H460MX20 cells was “chemoresistance phenotype was fully reversed”. Also, the “Inhibition of MRP1-mediated transport” value on ABCC1 (MRP1) is “partially inhibited”.

With `COc1ccccc1CCn1c2c(c3c(O)cc(C)cc31)C(=O)c1ccccc1-2` [6a, 9-Hydroxy-7-methyl-5-(2-methoxyphenethyl)-5H-indeno[1,2-b]indol-10(5H)-one], in data set [1], the “Intrinsic cytotoxicity in ABCG2-transfected versus control cells (cross-resistance)” value was “no apparent cross-resistance”. The “Chemosensitization to SN-38” value is “efficiently chemosensitize” with HEK293-ABCG2 cells and “chemoresistance phenotype was fully reversed” in the data set on H460MX20 cells. Further, the figures for the “FR, fold reversal” value in the data set with HEK293-ABCG2 cells (setting [2]) and with HEK293-ABCG2 cells (setting [3]) were 0.47 and 0.82, respectively. The “Selectivity toward ABCG2 versus P-gp and MRP1” value on ABCC1 (MRP1) was “specific ABCG2 inhibitor; also recorded: completely selective to ABCG2”.

On to `COc1ccc2[nH]cc(CCn3c4c(c5c(O)cccc53)C(=O)c3ccccc3-4)c2c1` [6c, 9-Hydroxy-5-(2-(5-methoxy-1H-indol-3-yl)ethyl)indeno[1,2-b]indol-10(5H)-one], for which the melting point was 95 °C. Besides, the “Intrinsic cytotoxicity in ABCG2-transfected versus control cells (cross-resistance)” value in data set [1] is on record as “mild collateral sensitivity (CS) effect”. Also, in the data set with HEK293-ABCG2 cells (setting [2]), the “FR, fold reversal” value is on record as 0.37. In addition, the “FR, fold reversal” value with HEK293-ABCG2 cells (setting [3]) was found to be 1.13. The “Inhibition of MRP1-mediated transport” value on ABCC1 (MRP1) was “partially inhibited”.

The molecule `COc1cccc(CCn2c3c(c4c(O)cccc42)C(=O)c2ccc(O)cc2-3)c1` [6d, 3,9-Dihydroxy-5-(3-methoxyphenethyl)indeno[1,2-b]indol-10(5H)-one] displayed a melting point of 198 °C. The “Intrinsic cytotoxicity in ABCG2-transfected versus control cells (cross-resistance)” value in data set [1] is on record as “mild collateral sensitivity (CS) effect”. For the same molecule, the “FR, fold reversal” value with HEK293-ABCG2 cells (setting [2]) was determined as 0.64. Moreover, in the data set on HEK293-ABCG2 cells (setting [3]), the “FR, fold reversal” value was found to be 12.48. The “Inhibition of MRP1-mediated transport” value on ABCC1 (MRP1) is recorded as “partially inhibited”.
